Experimental data published in ChEMBL document CHEMBL1131527, “Estradiol-mimetic probes. Preparation of 17 alpha-(6-aminohexynyl)estradiol biotin, fluorescein and acridinium conjugates” (Bioorg Med Chem Lett, 1998).

Assay: Equilibrium dissociation constant of the compound
Format: ADME

**Q.** With `C[C@]12CC[C@@H]3c4ccc(O)cc4CC[C@H]3[C@@H]1CC[C@@]2(O)C#CCCCCNC(=O)CCCCC1SC[C@@H]2NC(=O)N[C@H]12` (stereo partly drawn) as the compound, how does the Kd read?
**A.** 0.141 µM

**Q.** For `C[C@]12CC[C@@H]3c4ccc(O)cc4CC[C@H]3[C@@H]1CC[C@@]2(O)C#CCCCCNC(=O)c1ccc2c(c1)C(=O)OC21c2ccc(O)cc2Oc2cc(O)ccc21`, which Kd is on record?
**A.** 0.0973 µM

**Q.** Which Kd does the source give for `Cc1ccc(S(=O)(=O)N(CCCC(=O)NCCCCC#C[C@]2(O)CC[C@H]3[C@@H]4CCc5cc(O)ccc5[C@H]4CC[C@@]32C)C(=O)c2c3ccccc3[n+](CCCS(=O)(=O)[O-])c3ccccc23)cc1` here?
**A.** 0.198 µM
